{"source": "patent US20240287136A1", "about": "“PHARMACEUTICAL COMPOSITION AND THE USE THEREOF IN THE TREATMENT OF AUTOIMMUNE DISEASES” (Singapore Health Services Pte. Ltd., priority 2016, published 2024)", "key": {"CD4+ sorted cells": {"system": "CD4+ sorted cells", "assay": "PD-1 / PDL1 expression on CD4+ T cells co-cultured with HCQ-treated mDC", "format": "cell-based, human", "experimental": "(§1) FIG. 6. […] CD4+ sorted cells were co-cultured with the mDC-treated groups for an additional 24 hours. The expression of PD-1 (MFI: 187 vs 212, T(x)=26.4, p<0.01) and intracellular PD-1 (MFI: 46 vs 222, T(x) 161, p<0.01) was increased in T cells when co-cultured with HCQ-treated mDC. h.\n(§2) MFI=Mean Fluorescence Index. […] MFI=Mean Fluorescence Index Sorted CD4+ T cells were then co-cultured with mDCs for an additional 24 hours.\nMonocyte-derived dendritic cells (DCs) were isolated from healthy controls and activated with lipopolysaccharide (LPS). […] HCQ-treated and untreated mature DCs were then co-cultured with CD4+ T cells to assess the potential of these DCs in activating the T cells."}, "[1]": {"system": "patients with early rheumatoid arthritis", "assay": "Phase II trial of mucosal tolerization to SEQ ID NO. 1: clinical outcome", "format": "in vivo, human", "experimental": "The model employed here is based on the hypothesis that immune tolerization to a T-cell epitope, such as SEQ ID NO. 1 that may be a contributor of inflammation in patients with rheumatoid arthritis, may lead to detectable clinical improvement. A total of 96 patients with early rheumatoid arthritis, who were not allowed on Methotrexate or biologics, were tested with mucosal tolerization to SEQ ID NO. 1. Patients are defined as “responders” if they meet the response criteria at any time during the study. […] SEQ ID NO. […]"}, "[2]": {"system": "Monocyte-derived, LPS-induced dendritic cells (mDC)", "assay": "Marker expression on monocyte-derived, LPS-induced dendritic cells treated in vitro with HCQ", "format": "cell-based, human", "experimental": "FIG. 6. […] CD4+ sorted cells were co-cultured with the mDC-treated groups for an additional 24 hours.\nas §2"}, "[3]": {"system": "T cells cocultured with mDC", "assay": "Gene expression of regulatory molecules in T cells co-cultured with mDC+HCQ", "format": "cell-based, human", "experimental": "as §1\nData are expressed as 2(−dCT)×100 of GAPDH.\nas §2"}}}
{"compound": "CCN(CCO)CCCC(C)Nc1ccnc2cc(Cl)ccc12", "note": "(stereo not shown) [HCQ, hydroxychloroquine]", "values": [{"measurement": "expression of intracellular PD-1 in T cells", "setting": "CD4+ sorted cells; CD4+ cells co-cultured 24 hours with HCQ-treated mDC, control 46", "result": 222, "unit": "MFI"}, {"measurement": "expression of PD-1 in T cells", "setting": "CD4+ sorted cells; CD4+ cells co-cultured 24 hours with HCQ-treated mDC, control 187", "result": 212, "unit": "MFI"}, {"measurement": "expression of PDL1 on CD4+ T cells", "setting": "CD4+ sorted cells; cultured in the presence of HCQ-treated DCs (FIG. 12B)", "result": "expressed more"}, {"measurement": "effect on the therapeutic activity of SEQ ID NO: 1", "setting": "[1]; HCQ use preceding SEQ ID NO: 1 administration", "result": "synergistic effect"}, {"measurement": "clinical control", "setting": "[1]; post hoc evaluation of Phase II trial, preceding use of HCQ in combination with SEQ ID NO. 1 treatment", "result": "favored clinical control"}, {"measurement": "expression of HLA-DR on mDC", "setting": "[2]; control 100", "result": 20.8, "unit": "MFI"}, {"measurement": "expression of CD200 on mDC", "setting": "[2]; control 264", "result": 409, "unit": "MFI"}, {"measurement": "expression of IL-10 in mDC", "setting": "[2]; control 453", "result": 1045, "unit": "MFI"}, {"measurement": "expression of CD86 on mDC", "setting": "[2]; control 37983", "result": 34170, "unit": "MFI"}, {"measurement": "Gene expression of CTLA-4 in T cells", "setting": "[3]; without HCQ 1.74", "result": "15.06 2(−dCT)×100 of GAPDH"}, {"measurement": "Gene expression of FoxP3 in T cells", "setting": "[3]; without HCQ 3.06", "result": "12.27 2(−dCT)×100 of GAPDH"}, {"measurement": "Gene expression of IL-10 in T cells", "setting": "[3]; without HCQ 3.71", "result": "7.57 2(−dCT)×100 of GAPDH"}, {"measurement": "Gene expression of TGF β in T cells", "setting": "[3]; without HCQ 15.00", "result": "23.85 2(−dCT)×100 of GAPDH"}]}
